From PubChem BioAssay AID1963865 (Molecular Pharmacology Branch, DTP, NCI, 2024)
pIC50: −log10 of the molar value.

Test system: KRAS PDC multicell spheroid viability
Assay: Anticancer human tumor 825966-067-R-J1-PDC patient-derived colon carcinoma cell line growth inhibition [KRAS2]
Conditions: for pIC50: curve of first compound; for viability, T/C: stronger effect = lower value
Outline: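 KRAS-mutant tumor cells were grown as spheroids with HUVEC endothelial cells and human MSCs as stroma. Targeted agents were tested alone and with KRAS pathway inhibitors. Doses started at or near clinical Cmax, or 10 microM, descending half-log.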

[1] = second compound 0.1 µM, first compound 0.0316 µM
[2] = second compound 0.1 µM, first compound 0.1 µM
[3] = second compound 0.1 µM, first compound 0.316 µM
[4] = second compound 0.1 µM, first compound 1 µM
[5] = second compound 0.1 µM, first compound 3.16 µM
[6] = second compound 0.1 µM, first compound 10 µM
[7] = second compound 0.316 µM, first compound 0.0316 µM
[8] = second compound 0.316 µM, first compound 0.1 µM
[9] = second compound 0.316 µM, first compound 0.316 µM
[10] = second compound 0.316 µM, first compound 1 µM
[11] = second compound 0.316 µM, first compound 3.16 µM
[12] = second compound 0.316 µM, first compound 10 µM
[13] = second compound 1 µM, first compound 0.0316 µM
[14] = second compound 1 µM, first compound 0.1 µM
[15] = second compound 1 µM, first compound 0.316 µM
[16] = second compound 1 µM, first compound 1 µM
[17] = second compound 1 µM, first compound 3.16 µM
[18] = second compound 1 µM, first compound 10 µM
[19] = second compound 3.16 µM, first compound 0.0316 µM
[20] = second compound 3.16 µM, first compound 0.1 µM
[21] = second compound 3.16 µM, first compound 0.316 µM
[22] = second compound 3.16 µM, first compound 1 µM
[23] = second compound 3.16 µM, first compound 3.16 µM
[24] = second compound 3.16 µM, first compound 10 µM
[25] = second compound 10 µM, first compound 0.0316 µM
[26] = second compound 10 µM, first compound 0.1 µM
[27] = second compound 10 µM, first compound 0.316 µM
[28] = second compound 10 µM, first compound 1 µM
[29] = second compound 10 µM, first compound 3.16 µM
[30] = second compound 10 µM, first compound 10 µM
[31] = second compound 0.1 µM, first compound 0.00316 µM
[32] = second compound 0.1 µM, first compound 0.01 µM
[33] = second compound 0.316 µM, first compound 0.00316 µM
[34] = second compound 0.316 µM, first compound 0.01 µM
[35] = second compound 1 µM, first compound 0.00316 µM
[36] = second compound 1 µM, first compound 0.01 µM
[37] = second compound 3.16 µM, first compound 0.00316 µM
[38] = second compound 3.16 µM, first compound 0.01 µM
[39] = second compound 10 µM, first compound 0.00316 µM
[40] = second compound 10 µM, first compound 0.01 µM
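Also: spheroids exposed to compounds for 7 days.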
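For viability, T/C in this document: 100% = DMSO vehicle control viability.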

SMILES: CC(C)NCC(C(=O)N1CCN(c2ncnc3c2C(C)CC3O)CC1)c1ccc(Cl)cc1 (stereo not given) + CC1OCC2(CCN(c3cnc(Sc4ccnc(N)c4Cl)c(N)n3)CC2)C1N
- pIC50 (second compound 0.1 µM): 5.35
- pIC50 (second compound 0.316 µM): 5.38
- pIC50 (second compound 1 µM): 5.59
- pIC50 (second compound 3.16 µM): 5.85
- pIC50 (second compound 10 µM): 7.45
- viability, T/C [1]: 73.2%
- viability, T/C [2]: 97.8%
- viability, T/C [3]: 129%
- viability, T/C [4]: 87.9%
- viability, T/C [5]: 67.5%
- viability, T/C [6]: 11.6%
- viability, T/C [7]: 86.3%
- viability, T/C [8]: 121%
- viability, T/C [9]: 145%
- viability, T/C [10]: 122%
- viability, T/C [11]: 60.6%
- viability, T/C [12]: 14.5%
- viability, T/C [13]: 92.9%
- viability, T/C [14]: 102%
- viability, T/C [15]: 133%
- viability, T/C [16]: 112%
- viability, T/C [17]: 36.2%
- viability, T/C [18]: 12.1%
- viability, T/C [19]: 102%
- viability, T/C [20]: 107%
- viability, T/C [21]: 137%
- viability, T/C [22]: 67.7%
- viability, T/C [23]: 13.4%
- viability, T/C [24]: 5.28%
- viability, T/C [25]: 53.1%
- viability, T/C [26]: 29.5%
- viability, T/C [27]: 21.9%
- viability, T/C [28]: 6.39%
- viability, T/C [29]: 4.52%
- viability, T/C [30]: 4.31%

SMILES: CCN1CCN(Cc2ccc(Nc3ncc(F)c(-c4cc(F)c5nc(C)n(C(C)C)c5c4)n3)nc2)CC1 + CC1OCC2(CCN(c3cnc(Sc4ccnc(N)c4Cl)c(N)n3)CC2)C1N
- pIC50 (second compound 0.1 µM): < 6.00
- pIC50 (second compound 0.316 µM): < 6.00
- pIC50 (second compound 1 µM): < 6.00
- pIC50 (second compound 3.16 µM): 6.07
- pIC50 (second compound 10 µM): 7.19
- viability, T/C [31]: 121%
- viability, T/C [32]: 110%
- viability, T/C [1]: 102%
- viability, T/C [2]: 129%
- viability, T/C [3]: 143%
- viability, T/C [4]: 124%
- viability, T/C [33]: 105%
- viability, T/C [34]: 115%
- viability, T/C [7]: 96.7%
- viability, T/C [8]: 139%
- viability, T/C [9]: 135%
- viability, T/C [10]: 74.4%
- viability, T/C [35]: 105%
- viability, T/C [36]: 113%
- viability, T/C [13]: 112%
- viability, T/C [14]: 130%
- viability, T/C [15]: 164%
- viability, T/C [16]: 87.3%
- viability, T/C [37]: 95.2%
- viability, T/C [38]: 96.7%
- viability, T/C [19]: 98.1%
- viability, T/C [20]: 117%
- viability, T/C [21]: 150%
- viability, T/C [22]: 39.2%
- viability, T/C [39]: 72%
- viability, T/C [40]: 84.8%
- viability, T/C [25]: 72.4%
- viability, T/C [26]: 36%
- viability, T/C [27]: 18.4%
- viability, T/C [28]: 10.7%

SMILES: CCNC(=O)CC1N=C(c2ccc(Cl)cc2)c2cc(OC)ccc2-n2c(C)nnc21 (stereo not given) + CC1OCC2(CCN(c3cnc(Sc4ccnc(N)c4Cl)c(N)n3)CC2)C1N
- pIC50 (second compound 0.1 µM): < 5.00
- pIC50 (second compound 0.316 µM): < 5.00
- pIC50 (second compound 1 µM): < 5.00
- pIC50 (second compound 3.16 µM): < 5.00
- pIC50 (second compound 10 µM): < 5.00
- viability, T/C [1]: 104%
- viability, T/C [2]: 107%
- viability, T/C [3]: 122%
- viability, T/C [4]: 82.7%
- viability, T/C [5]: 89.9%
- viability, T/C [6]: 84.9%
- viability, T/C [7]: 101%
- viability, T/C [8]: 123%
- viability, T/C [9]: 119%
- viability, T/C [10]: 90.3%
- viability, T/C [11]: 91.2%
- viability, T/C [12]: 80.1%
- viability, T/C [13]: 97.5%
- viability, T/C [14]: 139%
- viability, T/C [15]: 138%
- viability, T/C [16]: 108%
- viability, T/C [17]: 107%
- viability, T/C [18]: 89.6%
- viability, T/C [19]: 97.6%
- viability, T/C [20]: 118%
- viability, T/C [21]: 137%
- viability, T/C [22]: 103%
- viability, T/C [23]: 84.2%
- viability, T/C [24]: 71.3%
- viability, T/C [25]: 85.2%
- viability, T/C [26]: 91.5%
- viability, T/C [27]: 93.5%
- viability, T/C [28]: 87.6%
- viability, T/C [29]: 67.6%
- viability, T/C [30]: 71.8%

SMILES: Cn1ncnc1[C@H]1c2n[nH]c(=O)c3cc(F)cc(c23)N[C@@H]1c1ccc(F)cc1 + CC1OCC2(CCN(c3cnc(Sc4ccnc(N)c4Cl)c(N)n3)CC2)C1N
- pIC50 (second compound 0.1 µM): < 7.00
- pIC50 (second compound 0.316 µM): < 7.00
- pIC50 (second compound 1 µM): < 7.00
- pIC50 (second compound 3.16 µM): < 7.00
- pIC50 (second compound 10 µM): > 9.50
- viability, T/C (second compound 0.1 µM, first compound 0.000316 µM): 109%
- viability, T/C (second compound 0.1 µM, first compound 0.001 µM): 82%
- viability, T/C [31]: 85.6%
- viability, T/C [32]: 71.5%
- viability, T/C [1]: 74.8%
- viability, T/C [2]: 64.7%
- viability, T/C (second compound 0.316 µM, first compound 0.000316 µM): 110%
- viability, T/C (second compound 0.316 µM, first compound 0.001 µM): 99.8%
- viability, T/C [33]: 103%
- viability, T/C [34]: 106%
- viability, T/C [7]: 89.6%
- viability, T/C [8]: 69.7%
- viability, T/C (second compound 1 µM, first compound 0.000316 µM): 87%
- viability, T/C (second compound 1 µM, first compound 0.001 µM): 109%
- viability, T/C [35]: 80%
- viability, T/C [36]: 104%
- viability, T/C [13]: 78.5%
- viability, T/C [14]: 79.6%
- viability, T/C (second compound 3.16 µM, first compound 0.000316 µM): 93.3%
- viability, T/C (second compound 3.16 µM, first compound 0.001 µM): 80.7%
- viability, T/C [37]: 86.8%
- viability, T/C [38]: 80%
- viability, T/C [19]: 87.1%
- viability, T/C [20]: 85%
- viability, T/C (second compound 10 µM, first compound 0.000316 µM): 55.1%
- viability, T/C (second compound 10 µM, first compound 0.001 µM): 18.3%
- viability, T/C [39]: 31.5%
- viability, T/C [40]: 43.9%
- viability, T/C [25]: 37.2%
- viability, T/C [26]: 18.1%
